Measured values published in patent publication US9718774B2, “Indole carboxamide derivatives as P2X7 receptor antagonist” (ACTELION PHARMACEUTICALS LTD, priority 2012, dated 2017).
Counter-ions that a name gives are not always drawn.

Biological target: T1, human recombinant P2X7 receptor (Homo sapiens, UniProt Q99572)
T1 construct: expressed in transfected cells
T1 sequence (Q99572 1-595): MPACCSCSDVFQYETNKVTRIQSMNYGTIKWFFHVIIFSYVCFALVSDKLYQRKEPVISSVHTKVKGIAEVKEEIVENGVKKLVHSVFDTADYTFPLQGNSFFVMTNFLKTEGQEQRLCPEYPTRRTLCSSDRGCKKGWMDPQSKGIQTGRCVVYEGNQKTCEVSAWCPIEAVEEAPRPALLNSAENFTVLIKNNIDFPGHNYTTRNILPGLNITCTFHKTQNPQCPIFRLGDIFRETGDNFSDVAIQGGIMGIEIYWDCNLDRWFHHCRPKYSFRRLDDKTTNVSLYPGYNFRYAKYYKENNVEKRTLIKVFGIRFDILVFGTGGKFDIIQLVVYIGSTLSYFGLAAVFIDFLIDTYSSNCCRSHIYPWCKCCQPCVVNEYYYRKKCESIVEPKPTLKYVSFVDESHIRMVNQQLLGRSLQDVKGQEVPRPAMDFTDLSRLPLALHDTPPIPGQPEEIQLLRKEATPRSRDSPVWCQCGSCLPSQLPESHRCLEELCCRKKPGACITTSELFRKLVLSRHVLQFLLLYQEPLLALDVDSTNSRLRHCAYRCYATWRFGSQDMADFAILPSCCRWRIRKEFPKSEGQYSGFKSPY
Experiment: YO-PRO assay: P2X7 receptor antagonistic activity in HEK cells stably expressing P2X7
Type: cell-based
Conditions: antagonistic activity with respect to the P2X7 receptor, read-out: IC50
Protocol: The P2X7 receptor antagonistic activity of the compounds of formula (I) is determined in accordance with the following experimental method.
Cell Line Generation and YO-PRO Assay
Cell line generation was performed in general according to established molecular cloning protocols. Specifically, RNA was extracted from human whole blood using the Qiagen RNeasy kit (Qiagen, CH) according to the manufacturer's instructions. Subsequently cDNA was made (Superscript II, Invitrogen AG, CH) and the human P2X7 gene (genbank ref. BC011913) was amplified with the following primers: […] and […]. The amplified sequence was subsequently ligated into a pcDNA3.1 (+) NotI, NheI digested plasmid. Human embryonic kidney (HEK) cells (ATCC CRL—1573, Manassas, Va., USA) were transfected with the pcDNA3.1 (+).hP2X7 plasmid using lipofectamine 2000 (Invitrogen AG, CH) according to the manufacturer's instructions. Following a 24 h exposure to DNA, cells were trypsinized and re-seeded at low density in the presence of 250 μg Geneticin. Geneticin resistant cells were then selected during two consecutive rounds of cloning by serial limiting dilution with visual inspection. Individual clones were screened for P2X7 expression by applying ATP and recording the resultant uptake of YO-PRO1. Specific cell clones were chosen based on RNA and protein expression. HEK cells stably expressing P2X7 were used to screen drugs using the YO-PRO1 assay. Cells were grown to confluency in adherent culture at 37° C. in a humidified 5% CO2 incubator (split 1/5 every 3-4 days with DMEM, 10% FCS, 1% Penicillin/Streptomycin, 250 μg/ml Geneticin). Adherent cells were detached by incubation with Trypsine (1 ml per 165 cm^2 dish) for 2 minutes, then washed off with 10 ml PBS (without Mg^2+ and Ca^2+), and resuspended in DMEM, 10% FCS, 1% Penicillin/Streptomycin, no Geneticin. 10′000 cells per well (48 hours before the assay) or 25′000 cells per well (Vi-cell XR (Beckman Coulter) (24 hours before the assay) in 50 μl full medium were seeded on 384-well black-wall, clear bottom plates, that were coated before with 10 μl per well Poly-L-Lysine, incubated for 30-60 minutes at 37° C. and washed once with PBS. Medium was removed from cells and 50 μl of assay buffer containing 0.5 μM YO-PRO-1 was added into the wells. Solutions of antagonist compounds were prepared by serial dilutions of a 10 mM DMSO solution of the antagonist into PBS using a BioMek (Beckman Coulter). Each concentration was performed in duplicate. For IC50 measurements 10 concentration points were measured (10 μM being the highest concentration followed by 9 serial dilution steps 1/3). The cells were incubated with the antagonists of the present invention together with ATP at a final concentration of 250 μM for 90 minutes. During this time period, four time points were taken. Each time point comprised the average of several measurements made within a few seconds. Fluorescence was measured in the FLIPR tetra (Molecular Devices) using the filters appropriate for YO-PRO-1 fluorescence (excitation 485/20, emission 530/25). The FLIPR tetra was equipped with Molecular Devices Screen Works system control software to define and run experimental protocols. […] For IC50 measurements the maximum intensity is plotted against the concentration of compound to determine IC50 values.

SMILES	IC50 [nM]
Cc1cnc(C(CNC(=O)c2ccc3[nH]ccc3c2Cl)N2CCCCC2)cn1 (racemic) [Example 60, rac-4-Chloro-1H-indole-5-carboxylic acid [2-(5-methyl-pyrazin-2-yl)-2-piperidin-1-yl-ethyl]-amide]	232
Cc1cnc(C(CNC(=O)c2ccc3[nH]ccc3c2Cl)N2CCOCC2)cn1 (racemic) [Example 63, rac-4-Chloro-1H-indole-5-carboxylic acid [2-(5-methyl-pyrazin-2-yl)-2-morpholin-4-yl-ethyl]-amide]	257
Cc1ncc(C(CNC(=O)c2ccc3[nH]ccc3c2C)N2CCOCC2)cn1 (single isomer, unassigned) [Example 105, 4-Methyl-1H-indole-5-carboxylic acid [2-(2-methyl-pyrimidin-5-yl)-2-morpholin-4-yl-ethyl]-amide]	20
Cc1ncc(C(CNC(=O)c2ccc3[nH]ccc3c2Cl)N2CCCC2)cn1 (racemic) [Example 14, rac-4-Chloro-1H-indole-5-carboxylic acid [2-(2-methyl-pyrimidin-5-yl)-2-pyrrolidin-1-yl-ethyl]-amide]	286
Cc1ccc(C(CNC(=O)c2ccc3[nH]ccc3c2Cl)N2CCOCC2)cc1 (racemic) [Example 47, rac-4-Chloro-1H-indole-5-carboxylic acid (2-morpholin-4-yl-2-p-tolyl-ethyl)-amide]	54
O=C(NCC(c1cccnc1)N1CCOCC1)c1ccc2[nH]ccc2c1Cl (racemic) [Example 25, rac-4-Chloro-1H-indole-5-carboxylic acid (2-morpholin-4-yl-2-pyridin-3-yl-ethyl)-amide]	32
COc1cc(C(=O)NCC(c2cnc(C)nc2)N2CCOCC2)c(Cl)c2cc[nH]c12 (single isomer, unassigned) [Example 114, 4-Chloro-7-methoxy-1H-indole-5-carboxylic acid [2-(2-methyl-pyrimidin-5-yl)-2-morpholin-4-yl-ethyl]-amide]	14
Cc1ncc(C(CNC(=O)c2ccc3[nH]ccc3c2Cl)N2CC3CC2CO3)cn1 (stereo not drawn) [Example 68, 4-Chloro-1H-indole-5-carboxylic acid [2-(2-methyl-pyrimidin-5-yl)-2-(2-oxa-5-aza-bicyclo[2.2.1]hept-5-yl)-ethyl]-amide]	2060
CN1CCC(C(CNC(=O)c2ccc3[nH]ccc3c2Cl)c2cccnc2)CC1 (racemic) [Example 21, rac-4-Chloro-1H-indole-5-carboxylic acid [2-(1-methyl-piperidin-4-yl)-2-pyridin-3-yl-ethyl]-amide formic acid salt]	584
O=C(NCC(c1c(F)cc(F)cc1F)N1CCOCC1)c1ccc2[nH]ccc2c1Cl (racemic) [Example 33, rac-4-Chloro-1H-indole-5-carboxylic acid [2-morpholin-4-yl-2-(2,4,6-trifluoro-phenyl)-ethyl]-amide]	301
Cc1ncc(C(CNC(=O)c2cc(C)c3[nH]ccc3c2Cl)N2CCOCC2)cn1 (single isomer, unassigned) [Example 97, 4-Chloro-7-methyl-1H-indole-5-carboxylic acid [2-(2-methyl-pyrimidin-5-yl)-2-morpholin-4-yl-ethyl]-amide]	10
Cc1ncc(C(CNC(=O)c2ccc3[nH]ccc3c2Cl)N2CCCCC2)cn1 (racemic) [Example 16, rac-4-Chloro-1H-indole-5-carboxylic acid [2-(2-methyl-pyrimidin-5-yl)-2-piperidin-1-yl-ethyl]-amide]	9.7
Cc1ncc(C(CNC(=O)c2cc(C)c3[nH]ccc3c2C(F)(F)F)N2CCOCC2)cn1 (racemic) [Example 103, rac-7-Methyl-4-trifluoromethyl-1H-indole-5-carboxylic acid [2-(2-methyl-pyrimidin-5-yl)-2-morpholin-4-yl-ethyl]-amide]	26
Cc1ncc(C(CNC(=O)c2ccc3[nH]ccc3c2Cl)N2CCC2)cn1 (racemic) [Example 13, rac-4-Chloro-1H-indole-5-carboxylic acid [2-azetidin-1-yl-2-(2-methyl-pyrimidin-5-yl)-ethyl]-amide]	831
Cc1ncc(C(CNC(=O)c2ccc3[nH]ccc3c2Cl)N2CC(C)OC(C)C2)cn1 (single isomer, unassigned) [Example 41, 4-Chloro-1H-indole-5-carboxylic acid [2-(2,6-dimethyl-morpholin-4-yl)-2-(2-methyl-pyrimidin-5-yl)-ethyl]-amide]	651
O=C(NCC(c1ccc(Cl)cc1)N1CCOCC1)c1ccc2[nH]ccc2c1Cl (racemic) [Example 38, rac-4-Chloro-1H-indole-5-carboxylic acid [2-(4-chloro-phenyl)-2-morpholin-4-yl-ethyl]-amide]	15
O=C(NCC(c1cncnc1)N1CCCCC1)c1ccc2[nH]ccc2c1Cl (racemic) [Example 27, rac-4-Chloro-1H-indole-5-carboxylic acid (2-piperidin-1-yl-2-pyrimidin-5-yl-ethyl)-amide]	8.7
O=C(NCC(c1cccnc1)N1CCCCC1)c1ccc2[nH]ccc2c1Cl (racemic) [Example 46, rac-4-Chloro-1H-indole-5-carboxylic acid (2-piperidin-1-yl-2-pyridin-3-yl-ethyl)-amide]	39
Cc1ncc(C(CNC(=O)c2ccc3[nH]ccc3c2Cl)N2CCN(C(=O)OC(C)(C)C)CC2)cn1 (racemic) [Example 89, rac-4-[2-[(4-Chloro-1H-indole-5-carbonyl)-amino]-1-(2-methyl-pyrimidin-5-yl)-ethyl]-piperazine-1-carboxylic acid tert-butyl ester]	277
Cc1ncc(C(CNC(=O)c2ccc3[nH]ccc3c2Cl)N2CCC(C(=O)OC(C)(C)C)CC2)cn1 (racemic) [Example 75, rac-1-[2-[(4-Chloro-1H-indole-5-carbonyl)-amino]-1-(2-methyl-pyrimidin-5-yl)-ethyl]-piperidine-4-carboxylic acid tert-butyl ester]	258
Cc1ncc(C(CNC(=O)c2cc(OCCO)c3[nH]ccc3c2Cl)N2CCOCC2)cn1 (racemic) [Example 113, rac-4-Chloro-7-(2-hydroxy-ethoxy)-1H-indole-5-carboxylic acid [2-(2-methyl-pyrimidin-5-yl)-2-morpholin-4-yl-ethyl]-amide]	21
O=C(NCC(c1ccc(Cl)nc1)N1CCC(F)(F)CC1)c1ccc2[nH]ccc2c1Cl (racemic) [Example 2, rac-4-Chloro-1H-indole-5-carboxylic acid [2-(6-chloro-pyridin-3-yl)-2-(4,4-difluoro-piperidin-1-yl)-ethyl]-amide]	4.3
O=C(NCC(c1ccc(F)c(F)c1)N1CCOCC1)c1ccc2[nH]ccc2c1Cl (racemic) [Example 50, rac-4-Chloro-1H-indole-5-carboxylic acid [2-(3,4-difluoro-phenyl)-2-morpholin-4-yl-ethyl]-amide]	13
Cc1ncc(C(CNC(=O)c2ccc3[nH]ccc3c2Cl)N2CCOCC2)cn1 (single isomer, unassigned) [Example 4, 4-Chloro-1H-indole-5-carboxylic acid [2-(2-methyl-pyrimidin-5-yl)-2-morpholin-4-yl-ethyl]-amide]	9.4
